Measurements: PMC6429600, “Development of a dual-functional conjugate of antigenic peptide and Fc-III mimetics (DCAF) for targeted antibody blocking” (Chemical Science, 2019)

Columns and labels:
Ab4 (mAb35 antibody) = experiment: SPR binding to immobilized Ab4; conditions: mean ± SD (n = 3), read-out: Kd of Ab4 binding (apparent Kd for DCAF)
[1] = biological target: Ab3 (monoclonal antibody raised against pep3); experiment: SPR binding to immobilized Ab3; design: species or system mouse; conditions: BIAcore T200, Ab3 immobilized on CM5 chip, PBS with 0.005% surfactant P20, mean ± SD (n = 3), read-out: Kd of Ab3 binding (apparent Kd for DCAF)
Protocol: (§1) Surface plasmon resonance (SPR) experiments were performed using a BIAcore T200 instrument (GE healthcare) equipped with a CM5 sensor chip. Briefly, Ab1, Ab2 or Ab3 were directly immobilized onto a CM5 sensor chip using an EDC/NHS amine coupling kit. A blank channel was used as the negative control. For SPR measurements, all peptides were directly dissolved in running buffer (PBS with 0.005% surfactant P20). The analytes were injected and disassociated with immobilized IgG at a flow rate of 30 μl min^–1. After each binding and dissociation cycle, the surface of a sensor chip was regenerated using 10 mM glycine-HCl buffer (pH 2.0). The sensorgrams were corrected by subtraction of the signal from the negative control flow path and curve-fitted to calculate the reaction rate and constants using Evaluation 1.0 software.

Ab2 = experiment: ELISA competition assay of Ab2 binding to GST-fused pep2; assay type: biochemical, mouse; conditions: sandwich ELISA, GST-fused pep2, Ab2 10 nM, OD450
Protocol: A standard sandwich ELISA assay was used for competition experiment. Briefly, 96-well microtiter plates were coated overnight with anti-GST antibody (10 nM) at 4 °C and blocked with 200 μL of 1% BSA in PBS at room temperature for 1 h. Then the artificial antigen (0.5 nM), pep2 coupled with the GST protein, was added to the wells and incubated for 2 h at RT. The plates were washed with PBS/0.05% Tween 20, and Ab2 (10 nM) or Ab2 (10 nM) plus other ligands, antigen, Fc-III or DCAF2 at series concentrations, were added and incubated for 2 h at RT. […] For a C1q binding assay, rat C1q ELISA kit was used following the protocol of the manufacturer. Briefly, incubated 25 ng mL^–1 C1q and series concentrations of Ab4 or DCAF4 with a pre-coated C1q capture antibody for 2 h at RT. Then HRP linked detection antibody was added for 1 h at RT and the TMB substrate was used to measure the concentration of C1q at OD450.

[2] = biological target: Ab2 (monoclonal antibody raised against pep2); experiment: SPR binding to immobilized Ab2; design: species or system mouse; conditions: BIAcore T200, Ab2 immobilized on CM5 chip, PBS with 0.005% surfactant P20, mean ± SD (n = 3), read-out: Kd of Ab2 binding (apparent Kd for DCAF)
Protocol: as §1

Ab1 (4G2 antibody) = experiment: SPR binding to immobilized Ab1; design: species or system mouse; conditions: BIAcore T200, Ab1 immobilized on CM5 chip, PBS with 0.005% surfactant P20, 30 μl/min, mean ± SD (n = 3), read-out: Kd of Ab1 binding (apparent Kd for DCAF)
Protocol: as §1

[3] = biological target: 4G2 antibody (Ab1), ADE-inducible mouse monoclonal IgG (mouse); experiment: SPR; BIAcore T200; antibody (IgG) immobilised on a CM5 chip by EDC/NHS amine coupling; peptides as analytes in PBS with 0.005% surfactant P20, 30 ul/min; regeneration 10 mM glycine-HCl pH 2.0; apparent Kd for DCAF, bivalent fit gives Kd1 and Kd2
[4] = biological target: mAb35 (Ab4), commercial antibody that blocks the acetylcholine receptor; experiment: SPR

`CC(C)C[C@@H]1NC(=O)[C@H](Cc2c[nH]cn2)NC(=O)[C@H](Cc2c[nH]c3ccccc23)NC(=O)[C@H](C)NC(=O)[C@@H]2CSSC[C@H](NC(=O)[C@H](Cc3c[nH]c4ccccc34)NC(=O)[C@H](C(C)C)NC(=O)[C@H](CC(C)C)NC(=O)[C@H](CCC(=O)O)NC(=O)CNC1=O)C(=O)N[C@@H]([C@@H](C)O)C(=O)N[C@H](C(=O)O)CSSC[C@H](N)C(=O)N[C@@H](CC(=O)O)C(=O)N2` [Fc-III-4C] was tested, and the Kd (Ab4 (mAb35 antibody)) was 13.99 ± 0.03 nM.
For `CC(C)C[C@@H]1NC(=O)[C@H](Cc2c[nH]cn2)NC(=O)[C@H](Cc2c[nH]c3ccccc23)NC(=O)[C@H](C)NC(=O)[C@@H](NC(=O)[C@@H](N)CC(=O)O)CSSC[C@@H](C(=O)N[C@H](C(=O)O)[C@@H](C)O)NC(=O)[C@H](Cc2c[nH]c3ccccc23)NC(=O)[C@H](C(C)C)NC(=O)[C@H](CC(C)C)NC(=O)[C@H](CCC(=O)O)NC(=O)CNC1=O` [Fc-III], the Kd [1] was 134 ± 6 nM, the “inhibition of antigen–antibody (pep2–Ab2) binding” value (Ab2) was “did not inhibit” and the Kd [2] was 169 ± 18 nM. The Kd (Ab1 (4G2 antibody)) was 239 ± 2 nM.
Compound Fc-III peptide has a Kd [3] of 239 nM.
Compound Fc-III-4C peptide has a Kd [4] of 14 nM.
